According to the NIST ThermoML archive (doi:10.1016/j.jct.2017.12.022):
Numbers after ± are expanded uncertainties.

Key:
[1] = Crystal; DTA
[2] = Molar enthalpy of transition or fusion; conditions: Crystal; DSC

Normal melting temperature [1]: 140.8 ± 1 °C
Molar enthalpy of transition or fusion [2]: 8.48 ± 0.191 kcal/mol
SMILES: COC(=O)c1ccc(C(=O)OC)cc1 [dimethyl 1,4-benzenedicarboxylate]
